{"source": "paper PMC12526004", "about": "“Tiliroside Suppresses Uric Acid Production in Hepatocytes and Attenuates Purine-Induced Hyperuricemia in Male ICR Mice” (Molecules, 2025)", "key": {"AML12 hepatocytes [1]": {"system": "AML12 hepatocytes", "experiment": "UA production by AML12 cells stimulated with UA precursors", "format": "cell-based", "conditions": "for maximum reduction of UA production: guanosine + inosine (GI mixture) 100 µM each, vs control (0 µM); for UA production: UA precursor xanthine", "description": "AML12 hepatocytes used in this study were acquired from ATCC (CRL-2254), Manassas, VA, USA. AML12 cells were maintained in DMEM/F-12 (Life Technologies, Grand Island, NY, USA) supplemented with 10% (v/v) fetal bovine serum (FBS; Hyclone, Logan, UT, USA), recombinant human insulin (5 µg/mL), human transferrin (5 µg/mL), and dexamethasone (40 ng/mL), each obtained from FUJIFILM Wako, as well as selenium (3 ng/mL, Sigma-Aldrich) and penicillin–streptomycin mixed solution (100 U/mL penicillin and 100 µg/mL streptomycin, Nacalai Tesque), under a humidified atmosphere of 5% CO2 at 37 °C. Culture of AML12 hepatocytes and measurement of UA production were conducted following a previously reported protocol.Cells were seeded at a density of 1.0 × 10^5 cells per well in 24-well plates and cultured for 72 h in complete medium, followed by 24 h in serum-free DMEM/F-12. After serum deprivation, cells were rinsed once with calcium- and magnesium-free phosphate-buffered saline [PBS (–)] and incubated in 200 µL of balanced salt solution (BSS) containing […], 5 mM KCl, 1 mM MgCl2, 0.8 mM CaCl2, 25 mM NaHCO3, 1 mM NaH2PO4, 10 mM HEPES, and 5 mM glucose. […] The final concentration of DMSO in all samples was adjusted to 0.15%. After a 2-h incubation, 200 µL of the reaction mixture was collected for UA quantification. The UA concentration in BSS was used as an indicator of UA production. Subsequently, cells were washed with PBS (–) and lysed in 300 µL of buffer containing 50 mM Tris and 1 mM sodium phosphate (pH 7.5). Lysates were sonicated and centrifuged (12,000× g, 5 min, 4 °C), and the supernatants were used for protein quantification using the Pierce™ BCA Protein Assay Kit (Thermo Fisher Scientific Inc., Waltham, MA, USA). UA levels were measured using the uricase-based Uric Acid C-Test Wako (FUJIFILM Wako). UA production was expressed as nanomoles per 2 h per milligram of cellular protein (nmol/2 h/mg protein)."}, "AML12 hepatocytes [2]": {"system": "AML12 hepatocytes", "experiment": "Cell viability, WST-8 assay", "format": "cell-based", "conditions": "concentrations up to 100 µM, 2 h", "description": "The viability of AML12 cells was determined using the WST-8 assay provided in the Cell Counting Kit-8 (Dojindo Laboratories, Kumamoto, Japan). Cells were initially seeded at 5 × 10^3 cells per well in 96-well plates and maintained in DMEM/F-12 medium containing 10% (v/v) FBS for 72 h. To induce serum deprivation, the medium was replaced with serum-free DMEM/F-12, and cells were incubated for an additional 24 h. […] The treatment lasted for 2 h. Subsequently, cells were washed again with BSS and incubated with the WST-8 reagent for 1 h. Absorbance was measured at 490 nm using a microplate reader (MTP-310Lab; CORONA […] Co., Ltd., […], Japan). Cell viability was normalized to the DMSO control (0 μM), which was set at 100%."}, "XO": {"system": "XO", "conditions": "read-out: IC50, XO inhibition (previous report); cited from earlier work"}, "[3]": {"biological_target": "xanthine oxidase (bovine milk-derived) (Bos taurus, UniProt P80457)", "sequence (P80457 whole entry)": "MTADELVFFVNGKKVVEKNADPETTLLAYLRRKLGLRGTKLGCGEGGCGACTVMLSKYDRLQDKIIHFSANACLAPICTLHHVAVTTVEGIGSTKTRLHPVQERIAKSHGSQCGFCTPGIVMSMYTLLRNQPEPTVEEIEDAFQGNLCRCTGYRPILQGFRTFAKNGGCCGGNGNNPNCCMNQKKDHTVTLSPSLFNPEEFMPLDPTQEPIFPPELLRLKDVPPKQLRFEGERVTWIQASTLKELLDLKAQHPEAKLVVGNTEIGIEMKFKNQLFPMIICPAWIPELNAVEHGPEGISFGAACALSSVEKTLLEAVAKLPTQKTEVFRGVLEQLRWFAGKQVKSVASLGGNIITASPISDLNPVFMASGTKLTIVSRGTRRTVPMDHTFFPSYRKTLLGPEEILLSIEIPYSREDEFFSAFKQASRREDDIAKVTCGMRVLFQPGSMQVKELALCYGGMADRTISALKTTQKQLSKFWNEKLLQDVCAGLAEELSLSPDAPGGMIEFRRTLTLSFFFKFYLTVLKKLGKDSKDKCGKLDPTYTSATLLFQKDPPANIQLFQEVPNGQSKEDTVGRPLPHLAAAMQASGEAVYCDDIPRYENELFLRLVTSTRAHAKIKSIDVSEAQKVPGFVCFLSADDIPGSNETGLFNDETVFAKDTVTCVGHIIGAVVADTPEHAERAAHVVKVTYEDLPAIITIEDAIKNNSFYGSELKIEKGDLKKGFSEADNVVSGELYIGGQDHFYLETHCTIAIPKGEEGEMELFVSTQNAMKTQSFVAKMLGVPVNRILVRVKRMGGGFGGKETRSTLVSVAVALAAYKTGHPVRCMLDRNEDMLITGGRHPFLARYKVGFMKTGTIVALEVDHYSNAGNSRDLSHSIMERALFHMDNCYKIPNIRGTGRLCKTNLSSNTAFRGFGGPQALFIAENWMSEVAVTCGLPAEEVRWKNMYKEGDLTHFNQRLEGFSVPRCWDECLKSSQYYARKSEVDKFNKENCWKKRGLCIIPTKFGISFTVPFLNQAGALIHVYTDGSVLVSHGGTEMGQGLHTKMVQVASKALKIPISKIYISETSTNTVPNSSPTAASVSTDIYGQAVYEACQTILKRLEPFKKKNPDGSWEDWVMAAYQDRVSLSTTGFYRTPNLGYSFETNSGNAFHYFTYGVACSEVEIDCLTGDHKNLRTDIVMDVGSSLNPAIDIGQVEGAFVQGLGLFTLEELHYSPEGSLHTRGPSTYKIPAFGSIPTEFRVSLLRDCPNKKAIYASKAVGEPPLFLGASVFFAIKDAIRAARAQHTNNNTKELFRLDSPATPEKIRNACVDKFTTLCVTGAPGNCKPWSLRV", "experiment": "XO inhibition assay in vitro (UV absorbance at 295 nm)", "format": "biochemical", "conditions": "xanthine substrate, 37 °C, mean of three independent experiments, read-out: IC50, direct XO inhibitory activity", "quoted_text": "Prior to the assay, the compounds were freshly dissolved in a mixture of 30% dimethyl sulfoxide (DMSO; FUJIFILM Wako) and 70% phosphate buffer (100 mM, pH 7.5) to prepare test solutions at final concentrations ranging from 0 to 100 µM. In each well of a 96-well microplate, 50 µL of the test solution was mixed with 60 µL of buffer and 30 µL of xanthine oxidase (7.8 mU/mL, bovine milk-derived; Sigma-Aldrich). After preincubation at 37 °C for 10 min, the reaction was initiated by adding 60 µL of xanthine substrate (150 µM; FUJIFILM Wako). Absorbance at 295 nm was monitored for 30 min at 37 °C using a Spark 10 M microplate reader (Tecan Group Ltd., Männedorf, Switzerland). XO inhibitory activity was expressed as percentage inhibition, calculated using the formula Inhibition (%) = 100 × [1 − (B/A)], where A and B represent the absorbance increase in the absence and presence of the test compound, respectively. All measurements were performed in triplicate.\nAll experimental data are presented as mean ± SEM. […] Data from the in vitro XO inhibition assay are shown as mean values from three independent experiments. IC50 values were calculated by nonlinear regression analysis using dose–response curves generated from at least six concentrations of each compound. All statistical analyses were performed using GraphPad Prism version 10 (GraphPad Software, San Diego, CA, USA)."}}}
{"compound": "O=c1c(O[C@@H]2O[C@H](CO)[C@@H](O)[C@H](O)[C@H]2O)c(-c2ccc(O)cc2)oc2cc(O)cc(O)c12", "note": "[Astragalin, kaempferol-3-O-glucoside]", "values": [{"measurement": "maximum reduction of UA production", "setting": "AML12 hepatocytes [1]; 100 µM, 2 h", "value": "approximately 13.3%"}, {"measurement": "cytotoxic effects (cell viability)", "setting": "AML12 hepatocytes [2]", "value": "did not exhibit any cytotoxic effects"}, {"measurement": "IC50", "setting": "XO", "value": 49.5, "unit": "µM"}, {"measurement": "IC50", "setting": "[3]", "value": 43, "unit": "µM"}]}
{"compound": "O=c1c(O)c(-c2ccc(O)cc2)oc2cc(O)cc(O)c12", "note": "[Kaempferol, kaempferol]", "values": [{"measurement": "UA production", "setting": "AML12 hepatocytes [1]; 10 µM", "value": "236.0 ± 7.2", "unit": "nmol/2 h/mg protein"}, {"measurement": "UA production", "setting": "AML12 hepatocytes [1]; 30 µM", "value": "101.1 ± 2.8", "unit": "nmol/2 h/mg protein"}, {"measurement": "UA production", "setting": "AML12 hepatocytes [1]; 100 µM", "value": "31.4 ± 0.5", "unit": "nmol/2 h/mg protein"}, {"measurement": "maximum reduction of UA production", "setting": "AML12 hepatocytes [1]; 100 µM, 2 h", "value": "~97.2", "unit": "%"}, {"measurement": "cytotoxic effects (cell viability)", "setting": "AML12 hepatocytes [2]", "value": "did not exhibit any cytotoxic effects"}]}
{"compound": "O=C(O)/C=C/c1ccc(O)cc1", "note": "[p-Coumaric acid, p-coumaric acid]", "values": [{"measurement": "effect on UA production", "setting": "AML12 hepatocytes [1]; concentrations up to 100 µM, GI mixture, 2 h", "value": "remained unaffected"}, {"measurement": "cytotoxic effects (cell viability)", "setting": "AML12 hepatocytes [2]", "value": "did not exhibit any cytotoxic effects"}, {"measurement": "IC50", "setting": "[3]", "value": "> 100", "unit": "µM"}]}
